The values that follow come from patent US11000033B2, “Ketone or oxime compound, and herbicide” (NISSAN CHEMICAL CORPORATION, priority 2014, dated 2021).

What all share (type): in vivo
The subject of one data set is corn. Briefly: Test Example 5: effect on crop by foliage application, plastic box (symbol c). The note with it: 320 g/ha, 3 weeks after application. An outline of the steps:
(§1)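 Foliage-application test plants come from spot sowing in sterilized diluvial soil under a soil layer of about 1.5 cm, grown at 25° C. to 30° C. in a greenhouse.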

A further data set deals with rice. In words: Test Example 4: effect on crop by soil treatment (symbol b). The note with it: application herbicide amount 320 g/ha. The gist of the method:
(§2)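 Crop seeds, among them rice, wheat, beet and rapeseed, were sown in sterilized diluvial soil and covered with about 1.5 cm of soil. Boxes were kept in a greenhouse at 25° C. to 30° C. for plant growth.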

For data set [1], the system named is Avena fatua. Briefly: Test Example 5: herbicidal effect by foliage application, plastic box (symbol I). The note with it: 320 g/ha, 3 weeks after application. The gist of the method: (§3)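 After sowing into sterilized diluvial soil and growing two weeks under glass at 25° C. to 30° C., seedlings receive a uniform foliar spray of diluted emulsion. Damage is judged visually three weeks on.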

Another data set concerns soybean. Briefly: Test Example 4: effect on crop by soil treatment (symbol d). The note with it: application herbicide amount 320 g/ha. The gist of the method: as §2
Data set [2] has as its system Echinochloa crus-galli var. crus-galli. In words: Test Example 5: herbicidal effect by foliage application, plastic box (symbol H). The note with it: 320 g/ha, 3 weeks after application. The gist of the method:
as §3

For a further data set, the system named is Abutilon theophrasti. In words: Test Example 4: herbicidal effect by soil treatment (symbol M). The note with it: application herbicide amount 320 g/ha. The gist of the method:
(§4)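 Seeds were sown in sterilized diluvial soil, covered with about 1.5 cm of soil, and the soil surface was sprayed with a water-diluted emulsion of the compound at a predetermined rate. Plants grew in a greenhouse at 25° C. to 30° C.; effects were scored visually 3 weeks after application.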

For data set [3], the system named is Monochoria vaginalis. Briefly: Test Example 2: herbicidal activity, application during weed generation in submerged conditions (symbol C). The note with it: Table 23; application herbicide amount 320 g/ha; grade 0-5 by criteria of Test Example 1. An outline of the steps: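 Compound was applied as a water-diluted emulsion into the standing water of flooded pots (4 cm) once co-sown weeds reached one to two leaves. Greenhouse temperature was 25° C. to 30° C., soil was alluvial, and each species was rated visually after 3 weeks.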

For data set [4], the system named is Apera spica-venti. In words: Test Example 5: herbicidal effect by foliage application, plastic box (symbol L). The note with it: 320 g/ha, 3 weeks after application. An outline of the steps: as §3
For data set [5], the system named is Echinochloa oryzacola Vasing. In words: Test Example 1: herbicidal activity, application before weed generation in submerged conditions (symbol A). The note with it: application herbicide amount 320 g/ha. The gist of the method:
(§5)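 Paddy pre-emergence test. Formulated emulsion, water-diluted to a predetermined rate, is applied to floodwater on sowing day; rice transplanted at 2.5 leaves. Effect read at 3 weeks on a 0–5 herbicidal-ratio scale.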

Another data set has as its system rapeseed. Briefly: Test Example 5: effect on crop by foliage application, plastic box (symbol g). The note with it: 320 g/ha, 3 weeks after application. An outline of the steps: as §1
For data set [6], the system named is Apera spica-venti. In words: Test Example 4: herbicidal effect by soil treatment (symbol L). The note with it: application herbicide amount 320 g/ha. An outline of the steps: as §4
Data set [7] concerns Monochoria vaginalis. Briefly: Test Example 1: herbicidal activity, application before weed generation in submerged conditions (symbol C). The note with it: application herbicide amount 320 g/ha. The gist of the method:
as §5

Data set [8] concerns Echinochloa crus-galli var. crus-galli. Briefly: Test Example 4: herbicidal effect by soil treatment (symbol H). The note with it: application herbicide amount 320 g/ha. An outline of the steps:
as §4

The next data set deals with Setaria viridis. In words: Test Example 5: herbicidal effect by foliage application, plastic box (symbol G). The note with it: 320 g/ha, 3 weeks after application. The gist of the method: as §3
Data set [9] relates to Avena fatua. In words: Test Example 4: herbicidal effect by soil treatment (symbol I). The note with it: application herbicide amount 320 g/ha. The gist of the method: as §4
The subject of another data set is beet. Briefly: Test Example 4: effect on crop by soil treatment (symbol f). The note with it: application herbicide amount 320 g/ha. The gist of the method:
as §2

Turning to `COC(=O)CON=C(C)CC1CC(O)=C(c2c(C)cc(C)cc2C)C1=O` (stereo not shown) [1-023], the “c: corn, effect on crop grade” value in the data set on corn is 1 (Herbicidal ratio of 5% or higher and lower than 20%). Also, the “b (directly sowed rice plant) effect on crop grade” value in the data set with rice is 5 (Herbicidal ratio of 90% or more (almost completely withered)). For the same molecule, in the data set on Avena fatua [1], the “I: Avena fatua, herbicidal effect grade” value was 1 (Herbicidal ratio of 5% or higher and lower than 20%). Further, the “d (soybean) effect on crop grade” value with soybean is on record as 0 (Herbicidal ratio of 5% or lower (almost no effect)). Moreover, the “H: Echinochloa crus-galli var. crus-galli, herbicidal effect grade” value in [2] was 4 (Herbicidal ratio of 70% or higher and lower than 90%). Further, the “M (Abutilon theophrasti) herbicidal effect grade” value in the data set on Abutilon theophrasti is given as 0 (Herbicidal ratio of 5% or lower (almost no effect)). Besides, the “Herbicidal effect grade, C: Monochoria vaginalis” value (from here on “Herbicidal effect grade, C”) in the data set with Monochoria vaginalis [3] and in the data set with Monochoria vaginalis [7] was 0 (Herbicidal ratio of 5% or lower (almost no effect)) in each case. The “L: Apera spica-venti, herbicidal effect grade” value with Apera spica-venti [4] is 4 (Herbicidal ratio of 70% or higher and lower than 90%). Also, the “Herbicidal effect grade, A: Echinochloa oryzacola Vasing.” value in data set [5] is 4 (Herbicidal ratio of 70% or higher and lower than 90%). The “g: rapeseed, effect on crop grade” value with rapeseed was 2 (Herbicidal ratio of 20% or higher and lower than 40%). In addition, in the data set with Apera spica-venti [6], the “L (Apera spica-venti) herbicidal effect grade” value was 4 (Herbicidal ratio of 70% or higher and lower than 90%). The “H (Echinochloa crus-galli var. crus-galli) herbicidal effect grade” value in data set [8] was 3 (Herbicidal ratio of 40% or higher and lower than 70%). Also, in the data set with Setaria viridis, the “G: Setaria viridis, herbicidal effect grade” value is 1 (Herbicidal ratio of 5% or higher and lower than 20%). For the same molecule, the “I (Avena fatua) herbicidal effect grade” value with Avena fatua [9] is recorded as 0 (Herbicidal ratio of 5% or lower (almost no effect)). Also, the “f (beet) effect on crop grade” value with beet is 0 (Herbicidal ratio of 5% or lower (almost no effect)).
For the molecule `CON=C(C)CC1CC(OS(=O)(=O)N(C)C)=C(c2c(C)cc(-c3ccc(F)cc3)cc2C)C1=O` (mixture of isomers) [6-060], in the data set with corn, the “c: corn, effect on crop (criteria of Test Example 1)” value is reported as 5 (Herbicidal ratio of 90% or more (almost completely withered)). Moreover, the “b: directly sowed rice plant, effect on crop grade” value (“b: directly sowed rice plant” below) in the data set with rice was 3 (Herbicidal ratio of 40% or higher and lower than 70%). For the same molecule, in the data set on Avena fatua [1], the “I: Avena fatua, herbicidal effect (criteria of Test Example 1)” value is recorded as 5 (Herbicidal ratio of 90% or more (almost completely withered)). Further, in the data set on soybean, the “d: soybean, effect on crop grade” value is listed as 0 (Herbicidal ratio of 5% or lower (almost no effect)). Moreover, the “H: Echinochloa crus-galli var. crus-galli, herbicidal effect (criteria of Test Example 1)” value in data set [2] is reported as 5 (Herbicidal ratio of 90% or more (almost completely withered)). Also, the “M: Abutilon theophrasti, herbicidal effect grade” value (“M: Abutilon theophrasti” below) with Abutilon theophrasti is on record as 0 (Herbicidal ratio of 5% or lower (almost no effect)). For the same molecule, the “Herbicidal effect grade, C” value was 4 (Herbicidal ratio of 70% or higher and lower than 90%) with Monochoria vaginalis [3]; 5 (Herbicidal ratio of 90% or more (almost completely withered)) in the data set with Monochoria vaginalis [7]. The “L: Apera spica-venti, herbicidal effect (criteria of Test Example 1)” value in the data set with Apera spica-venti [4] was 5 (Herbicidal ratio of 90% or more (almost completely withered)). The “Herbicidal effect grade, A: Echinochloa oryzacola Vasing.” value in data set [5] was 5 (Herbicidal ratio of 90% or more (almost completely withered)). Besides, in the data set on rapeseed, the “g: rapeseed, effect on crop (criteria of Test Example 1)” value is listed as 5 (Herbicidal ratio of 90% or more (almost completely withered)). Besides, the “L: Apera spica-venti, herbicidal effect grade” value with Apera spica-venti [6] is on record as 0 (Herbicidal ratio of 5% or lower (almost no effect)). Besides, the “H: Echinochloa crus-galli var. crus-galli, herbicidal effect grade” value in [8] was 4 (Herbicidal ratio of 70% or higher and lower than 90%). In the data set with Setaria viridis, the “G: Setaria viridis, herbicidal effect (criteria of Test Example 1)” value was 4 (Herbicidal ratio of 70% or higher and lower than 90%). Also, the “I: Avena fatua, herbicidal effect grade” value in the data set with Avena fatua [9] was 0 (Herbicidal ratio of 5% or lower (almost no effect)). In the data set with beet, the “f: beet, effect on crop grade” value was 0 (Herbicidal ratio of 5% or lower (almost no effect)).
For the molecule `CON=C(C)CC1CC(OC(=O)CCCC(C)=O)=C(c2c(C)cc(-c3ccc(Cl)cc3)cc2C)C1=O` (stereo not shown) [6-080], the “c: corn, effect on crop (criteria of Test Example 1)” value in the data set on corn was 5 (Herbicidal ratio of 90% or more (almost completely withered)). For the same molecule, the “b: directly sowed rice plant” value in the data set on rice is 0 (Herbicidal ratio of 5% or lower (almost no effect)). The “I: Avena fatua, herbicidal effect (criteria of Test Example 1)” value in the data set on Avena fatua [1] is on record as 5 (Herbicidal ratio of 90% or more (almost completely withered)). Moreover, the “d: soybean, effect on crop grade” value in the data set with soybean is reported as 0 (Herbicidal ratio of 5% or lower (almost no effect)). Moreover, in data set [2], the “H: Echinochloa crus-galli var. crus-galli, herbicidal effect (criteria of Test Example 1)” value was 5 (Herbicidal ratio of 90% or more (almost completely withered)). Also, the “M: Abutilon theophrasti” value in the data set with Abutilon theophrasti is 0 (Herbicidal ratio of 5% or lower (almost no effect)). For the same molecule, the “Herbicidal effect grade, C” value with Monochoria vaginalis [3] was 3 (Herbicidal ratio of 40% or higher and lower than 70%); in the data set with Monochoria vaginalis [7], 2 (Herbicidal ratio of 20% or higher and lower than 40%). The “L: Apera spica-venti, herbicidal effect (criteria of Test Example 1)” value in the data set with Apera spica-venti [4] is given as 5 (Herbicidal ratio of 90% or more (almost completely withered)). In addition, the “Herbicidal effect grade, A: Echinochloa oryzacola Vasing.” value in data set [5] was 5 (Herbicidal ratio of 90% or more (almost completely withered)). Moreover, in the data set with rapeseed, the “g: rapeseed, effect on crop (criteria of Test Example 1)” value was 3 (Herbicidal ratio of 40% or higher and lower than 70%). Moreover, the “L: Apera spica-venti, herbicidal effect grade” value in the data set on Apera spica-venti [6] was 5 (Herbicidal ratio of 90% or more (almost completely withered)). Moreover, in data set [8], the “H: Echinochloa crus-galli var. crus-galli, herbicidal effect grade” value is listed as 5 (Herbicidal ratio of 90% or more (almost completely withered)). Moreover, the “G: Setaria viridis, herbicidal effect (criteria of Test Example 1)” value in the data set with Setaria viridis was 5 (Herbicidal ratio of 90% or more (almost completely withered)). Also, the “I: Avena fatua, herbicidal effect grade” value with Avena fatua [9] was 0 (Herbicidal ratio of 5% or lower (almost no effect)). For the same molecule, the “f: beet, effect on crop grade” value with beet is reported as 0 (Herbicidal ratio of 5% or lower (almost no effect)).
Regarding `CCc1cc(-c2ccc(Cl)cc2)cc(C)c1C1=C(OC(=O)N2CCOCC2)CC(CC(C)=NOC)C1=O` (mixture of isomers) [6-064], the “c: corn, effect on crop (criteria of Test Example 1)” value with corn was 5 (Herbicidal ratio of 90% or more (almost completely withered)). Also, the “b: directly sowed rice plant” value with rice was 0 (Herbicidal ratio of 5% or lower (almost no effect)). In the data set on Avena fatua [1], the “I: Avena fatua, herbicidal effect (criteria of Test Example 1)” value is 5 (Herbicidal ratio of 90% or more (almost completely withered)). Further, the “d: soybean, effect on crop grade” value in the data set on soybean is listed as 0 (Herbicidal ratio of 5% or lower (almost no effect)). For the same molecule, in data set [2], the “H: Echinochloa crus-galli var. crus-galli, herbicidal effect (criteria of Test Example 1)” value is 5 (Herbicidal ratio of 90% or more (almost completely withered)). In the data set on Abutilon theophrasti, the “M: Abutilon theophrasti” value is given as 0 (Herbicidal ratio of 5% or lower (almost no effect)). In addition, the “Herbicidal effect grade, C” value with Monochoria vaginalis [3] and in the data set with Monochoria vaginalis [7] was 0 (Herbicidal ratio of 5% or lower (almost no effect)) each time. Also, in the data set on Apera spica-venti [4], the “L: Apera spica-venti, herbicidal effect (criteria of Test Example 1)” value is reported as 5 (Herbicidal ratio of 90% or more (almost completely withered)). For the same molecule, the “Herbicidal effect grade, A: Echinochloa oryzacola Vasing.” value in data set [5] was 5 (Herbicidal ratio of 90% or more (almost completely withered)). In addition, the “g: rapeseed, effect on crop (criteria of Test Example 1)” value in the data set with rapeseed is 3 (Herbicidal ratio of 40% or higher and lower than 70%). The “L: Apera spica-venti, herbicidal effect grade” value with Apera spica-venti [6] is 5 (Herbicidal ratio of 90% or more (almost completely withered)). Further, the “H: Echinochloa crus-galli var. crus-galli, herbicidal effect grade” value in [8] is given as 5 (Herbicidal ratio of 90% or more (almost completely withered)). The “G: Setaria viridis, herbicidal effect (criteria of Test Example 1)” value with Setaria viridis was 5 (Herbicidal ratio of 90% or more (almost completely withered)). For the same molecule, the “I: Avena fatua, herbicidal effect grade” value in the data set with Avena fatua [9] was 0 (Herbicidal ratio of 5% or lower (almost no effect)). Moreover, in the data set on beet, the “f: beet, effect on crop grade” value was 0 (Herbicidal ratio of 5% or lower (almost no effect)).
